Experimental data taken from US10392398B2, “Inhibitors of Late SV40 Factor (LSF) as cancer chemotherapeutics” (TRUSTEES OF BOSTON UNIVERSITY, priority 2010, dated 2019).
Values after ≈ are worked out from the molar mass of the structure shown. Like-named read-outs stand apart in the source and are kept apart here.

Tests used:
[1] = system: primary mouse hepatocytes; experiment: Primary mouse hepatocytes, growth and toxicity; type: cell-based
Excerpt: Averages with SEM of three experiments are shown. *P<0.05, by one-tailed t-test. […] The cells were imaged separately for TUNEL-positivity and DNA at the top. Below: Merged images; green for TUNEL (Terminal deoxynucleotidyl transferase dUTP nick end labeling) staining, blue for DAPI (4′,6-diamidino-2-phenylindole) staining. […] Binucleate cells are common for adult hepatocytes.

[2] = system: USF; experiment: USF-dependent reporter assay; type: cell-based
Method: USF-dependent reporter assays were performed with FQI1 only. Averages with standard deviation (SD) derive from 3-4 independent experiments. […] “−LSF”: translation extract with no programmed LSF. […] Myc-LSF-HA expression was induced with the small molecule inducer RSL1. In induced cells, FQI1 or vehicle was added for the final 12 h of myc-LSF-HA induction.

[3] = system: QGY-7703-derived tumors; experiment: Subcutaneous xenograft model of HCC in mice; type: in vivo; settings: for growth of hepatocellular carcinoma in vivo: intraperitoneally once every 3 days, about 1.0-2.0 mg/kg
Excerpt: The inventors, in collaboration with other scientists performed in vivo experiments in a subcutaneous xenograft model, where mice with small QGY-7703-derived tumors were given multiple, spaced intraperitoneal injections of FQI1 (Formula IV) over a 2 week period, followed by an additional 2-weeks prior to analysis. […] However, expression of osteopontin, whose gene is activated directly by LSF^8, was abolished by FQI1 treatment, as was expression of Ki-67, indicative of the replicative capacity of the tumors (data not shown). […] In contrast to the dramatic effects on tumor growth, no general toxicity was evident in the inhibitor-treated animals, as assayed by lack of changes in body weight, feeding, grooming, posture, and general behavior, as well as hematoxylin and eosin staining of multiple tissues (data not shown), and levels of liver enzymes and protein in the blood (data not shown).

[4] = system: cancer cell lines; experiment: Inhibition of growth of cancer cell lines in vitro (FIGS. 9 and 10); type: cell-based; settings: 0.2-33 μM
Method: FIG. 9A-9K show the results of inhibition of growth of cancer cell lines in vitro by FQI1 (Formula (IV)). The effect of inhibition of cell growth (represented as a fraction of 1) of increasing concentrations of FQI1 between 0.2-33 μM is shown.
The effect of inhibition of cell growth (represented as a fraction of 1) of increasing concentrations of FQI2 between 0.2-33 μM is shown.

[5] = Rat tolerability
Method: The purpose of the study was to determine the tolerability of FQI-34 in rats as administered by IV at 3 dose levels-5, 15, and 50 mg/kg. FQI-34 was formulated in 20% DMSO/50% PEG-400/30% saline, and administered by IV at 5 mL/kg for compound or 10 mL/kg for vehicle alone. 6 rats per dose arm were used (3 male and 3 female), with single dose administration with monitoring over 14 days. Gross necropsy was performed at the end of the study.

[6] = Kinetic solubility, turbidity based assay; type: physicochemical; settings: PBS buffer, 37 °C, pH 7.2, aqueous buffer, kinetic from dmso stock, 1×PBS pH 7.2, 1% DMSO, read-out: kinetic solubility, concentration at which precipitates first showed
Method: Kinetic solubility was measured via a turbidity based assay method (Kerns, E. et al. Automation in Pharmaceutical Profiling. Journal of Laboratory Automation (2005) 10, 114-123). 198 μL of 1×PBS (137 mM NaCl, 2.7 mM KCl, 10 mM Na2HPO4, 2 mM KH2PO4, pH 7.2) was added to the wells of a 96-well plate. FQI-34 (either dried or air-exposed (9% water as determined by NMR)) was dissolved in DMSO for 30 mM final concentration immediately before testing. The 30 mM stock was further diluted in DMSO appropriately for the desired final concentration to be tested in the solubility assay. 2 μL of the DMSO solutions were added to the 96-well plate such that DMSO was kept to 1%. The plate was sealed and gently shaken, and allowed to incubate at 37° C. for 2 hours, after which the absorbance at 620 nm was taken. The concentration at which the absorbance was greater than or equal to 0.01 absorbance units was taken as the precipitation point.

[7] = system: QGY-7703 cells; experiment: Cell viability GI50 (MTS), QGY-7703; type: cell-based; settings: Homo sapiens
Method: QGY-7703 and A549 cells were cultured at 37° C. in 5% CO2 in DMEM (Dulbecco's modification of Eagle's Medium; Corning) supplemented with 10% Fetal Bovine Serum (FBS; Invitrogen). NIH-3T3 cells were cultured at 37° C. in 5% CO2 in DMEM supplemented with 10% Fetal Calf Serum (FCS; Atlanta Biologicals). For cell viability assays, 1,500 cells were seeded in 96-well plates and treated with FQI-34 or vehicle (DMSO) at appropriate concentrations (DMSO at 1%) after 20 hours. After 72-hour incubation with compound or vehicle, cell growth was assessed via the Promega CellTiter 96® AQueous One Solution Cell Proliferation Assay, a colorimetric method to determine the number of viable cells. 20 μL of the CellTiter 96® AQueous One Solution Reagent was added directly into cultured wells and incubated for one hour, after which the absorbance at 490 nm was read with a 96-well plate reader (Opys MR Microplate Reader). The CellTiter 96® AQueous One Solution contains an MTS tetrazolium compound which is bioreduced by cells into a colored formazan product that is soluble in tissue culture medium. The quantity of formazan product as measured by absorbance is directly proportional to the number of living cells in culture. GI50 values were determined from plots of the percentage of compound-treated cell growth to vehicle cell growth vs. compound concentration (GraphPad Prism; non-linear regression 4-parameter curve fit with variable slope).

[8] = rats, single IV dose, 50 mg/mL dose level as printed

Compound: CCOc1ccccc1C1CC(=O)Nc2cc3c(cc21)OCO3 (racemic) [FQI1, 8-(2-ethoxyphenyl)-7,8-dihydro-[1,3]dioxolo[4,5-g]quinolin-6(5H)-one]
- growth consequences or toxicity in primary non-dividing mouse hepatocytes [1]: No growth consequences or toxicity
- transactivation of a USF-dependent reporter by USF [2]: unaffected
- suppression of growth of HCC tumor size ([3]; about 1.0-2.0 mg/kg once every 3 days, versus untreated mice, data not shown): 65-80%
- general toxicity in inhibitor-treated animals ([3]; body weight, feeding, grooming, posture, behavior, H&E of tissues): not evident
- expression of Ki-67 in endpoint tumors ([3]; immunofluorescence): abolished
- expression of osteopontin in endpoint tumors ([3]; immunofluorescence): abolished
- tumor growth in mouse xenograft ([3]; in words): remarkable decrease in tumor growth
- growth of hepatocellular carcinoma in vivo ([3]; in words, listed as formula (IV)): prevented or delayed the growth of hepatocellular carcinoma
- growth of hepatocellular carcinoma in vivo ([3]; in words, listed as formula IV): effective at abrogating the growth of hepatocellular carcinoma in vivo
- reduction of HCC tumor volume ([3]; mouse model, data not shown): about 80%
- decrease in endpoint tumor volumes ([3]; multiple intraperitoneal injections over 2 weeks, analysis 2 weeks later, data not shown): ~9 fold
- growth of a variety of cancers, in vitro cell assay [4]: inhibit the growth of a variety of cancers

Compound: CCOc1cc(N(C)C)ccc1C1CC(=O)Nc2cc3c(cc21)OCO3 (centres unmarked) [FQI-34, 8-(4-(dimethylamino)-2-ethoxyphenyl)-7,8-dihydro-[1,3]dioxolo[4,5-g]quinolin-6(5H)-one]
- gross necropsy ([5]; end of study, 14 days after single IV dose of 5, 15 or 50 mg/kg): no abnormal findings
- condition of all rats for duration of study ([5]; excluding the male rat B, 5, 15 and 50 mg/kg IV, 14 days): within normal limits
- observations in all other rats at this dose level ([5]; rats, single IV dose, 15 mg/mL dose as printed, 14 days): remained normal throughout the study
- mortality ([5]; rats, single IV dose, 15 mg/mL dose as printed, believed to be due to stress and not compound related): Male Rat B died
- observations upon dosing [5, 8]: pronation, increased respiratory rate, and decreased activity
- time until rats returned to normal [5, 8]: ≤ 30 min
- solubility kinetic at 2 h ([6]; air-exposed (9% water)): 100 µM (≈ 35.4 µg/mL)
- solubility kinetic at 2 h ([6]; dry): 150 µM (≈ 53.2 µg/mL)
- GI50 ([7]; 72-hour incubation, MTS, read-out: GI50 in QGY-7703 cells): 260 nM
- GI50 ([7]; Table 5, read-out: QGY-7703 GI50): 260 nM
- GI50 ([7]; Table 8, read-out: QGY-7703 GI50): 260 nM
